Measured values reported in PubChem BioAssay (NCI).
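96-well plates; 48 h exposure; 5 concentrations. Endpoints by linear interpolation between flanking doses. Not reached: highest tested concentration assigned. GI50: concentration for 50% inhibition of growth. TGI is the concentration that stops growth completely.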

Tests used:
Assay in all cases: NCI tumour cell line growth inhibition, 48 h
[1] = tested on: MCF7 breast
[2] = tested on: SF-268 CNS
[3] = tested on: SR leukemia
[4] = tested on: HCT-15 colon
[5] = tested on: SF-295 CNS
[6] = tested on: HL-60(TB) leukemia
[7] = tested on: NCI-H226 lung
[8] = tested on: SF-539 CNS
[9] = tested on: BT-549 breast
[10] = tested on: UO-31 renal

Structure (SMILES) | GI50 [1] [nM] | TGI [1] [nM] | GI50 [2] [nM] | TGI [2] [nM] | GI50 [3] [nM] | TGI [3] [nM] | GI50 [4] [nM] | TGI [4] [nM] | GI50 [5] [nM] | TGI [5] [nM] | GI50 [6] [nM] | TGI [6] [nM] | GI50 [7] [nM] | TGI [7] [nM] | GI50 [8] [nM] | TGI [8] [nM] | GI50 [9] [nM] | TGI [9] [nM] | GI50 [10] [nM] | TGI [10] [nM]
C[C@@H]1Cc2cc(O)ccc2[C@H]2CC[C@]3(C)/C(=C/COCCN(C)C)CC[C@H]3[C@H]12 (tested in a mixture with another compound) | < 20.8 | 612 | 111 | 235 | 212 | 550 | 205 | 550 | 175 | 474 | 244 | 628 | 744 | 1970 | 176 | 339 | 294 | 800 | 221 | 514
CC(CO)(Nc1ccc([N+](=O)[O-])cc1[N+](=O)[O-])C(=O)O (stereo not given) | – | 32100 | – | 48900 | – | 24800 | – | 31400 | – | > 100000 | – | 35400 | – | > 100000 | – | 91100 | – | 67200 | – | 37400
Oc1c(-c2cc(C(F)(F)F)[nH]n2)cc(Cl)c(OCc2ccc(Cl)cc2)c1-c1ccc(Cl)c(C(F)(F)F)c1 | 228 | 5390 | 180 | 4140 | 256 | 2990 | 153 | 693 | 607 | 1960 | 677 | 3120 | 917 | 2680 | 749 | 2720 | 624 | 2160 | 818 | 2210
COc1ccc2c(-c3ccnc(Nc4cccc(OC(F)(F)F)c4)n3)cnn2n1 | 1070 | 6150 | 1530 | 6530 | 904 | > 25000 | 1030 | > 23000 | 683 | > 14800 | 1070 | > 25000 | > 10300 | > 25000 | 909 | 3520 | 1480 | > 25000 | 2550 | > 12300
CCN1C(=O)N(CC)C2C1NN=c1s/c(=C\c3ccc(F)cc3)c(=O)n12 (stereo not given) | 45.4 | > 100000 | 807 | > 100000 | 47.4 | > 37300 | 87.6 | > 100000 | 81.9 | > 100000 | 170 | 514 | 20300 | > 100000 | 158 | 527 | 759 | > 26100 | 601 | > 100000
CC1c2ccccc2CCN1c1ccc(CO)c(Cl)c1 (stereo not given) | 56.5 | 23200 | 40800 | > 100000 | 28300 | > 85900 | 13300 | 53300 | 274 | 31400 | 21300 | 70200 | 49.1 | 228 | 19100 | 47300 | 17200 | 37700 | 14600 | 65300
